Key:
[1] = tested on: auricle of a Balb/c mouse; assay: In vivo photosensitivity test (ketoprofen-induced ear thickness increase after UVA); conditions: 20 μL on auricle, 40 J/cm^2 UVA, 24 hours
Experimental: The following experiment was conducted with reference to the method of Gerberick et al. (Food Chem. Toxicol., 27, 813-819(1989)) with some modifications. First, ethanol was used to prepare a mixed solution containing the test substances shown in Tables 4 and 5 {tert-butylhydroxyanisole (BHA), di-tert-butylhydroxytoluene […], propyl gallate} and 2% ketoprofen. As a control a 2% ketoprofen solution was prepared using ethanol. Next, 20 μL of each prepared solution (N=8) was applied onto the auricle of a Balb/c mouse (female, 9-11 weeks old), prior to irradiation with 40 J/cm^2 UVA. When 24 hours had passed after UVA irradiation, the ear thickness of the mouse was measured and the increase with respect to the initial ear thickness was calculated. […] The abbreviation “PG” in the tables stands for “propyl gallate”.

[2] = Synergistic phototoxicity-reducing action of combinations (method not described)
[3] = tested on: heparin-added rabbit venous blood (whole blood); assay: In vitro phototoxicity test (ketoprofen-associated photohemolysis); assay type: cell-based; conditions: Oryctolagus cuniculus, light or radiation study, with ketoprofen, 7.5 J/cm^2 UVA
Experimental: The following experiment was conducted according to “Guidelines for basic biological tests of medical materials and devices”, Part VII “Hemolysis Test”. First, each of the test substances listed in Table I (Example 1), Table 2 (Example 2) and Table 3 (Example 3) {tert-butylhydroxyanisole (BHA), di-tert-butylhydroxytoluene (BHT), thymol, propyl gallate} and ketoprofen were dissolved in N,N-dimethylformamide (DMF) to 20-fold compared to the concentration shown in the tables (1000 μg/mL of ketoprofen). Also, after further diluting these solutions 5-fold in phosphate buffered saline (PBS), equal amounts of each test substance solution and the ketoprofen solution were combined. As a control, ketoprofen alone was dissolved in DMF to […], and diluted 10-fold with PBS to prepare a solution. These solutions were dispensed in 1 mL portions into a 24-well multiwell plate, and then 1 mL of PBS containing 40 μL of heparin-added rabbit venous blood (whole blood) per 5 mL was added to each to prepare reaction solutions.
An ultraviolet irradiating apparatus (UVP Lamp Fixture, UVP) equipped with two ultraviolet lamps (FL15BLB, Sankyo Denki) was used to irradiate the reaction solutions with 7.5 J/cm^2 UVA (ultraviolet rays of wavelength 320-400 nm) in an incubator set to 37° C., with the cover removed from the plate containing the reaction solutions (UVA is associated with drug-induced photosensitivity). During the ultraviolet irradiation, a 3 mm-thick glass plate was placed between the light source and the reaction solutions to cut ultraviolet rays of 320 nm wavelength and shorter. The incubation time was 60 minutes, including the irradiation time. After completion of the reaction, the solutions were centrifuged, the obtained 100 μL of supernatant (N=3) was transferred to a 96-well assay plate and the absorbance at 540 nm (Abs540) was measured as an index of hemolysis. The effects of each of the test substances in Tables 1 to 3 on ketoprofen-associated photohemolysis were evaluated as the hemolysis inhibition (%) with respect to the control group, calculated using Abs540.

[4] = tested on: IL-1α production in HPV16 immobilized human adult keratinocytes (KERTr); assay: IL-1α production in ketoprofen-treated, UVA-irradiated keratinocytes (ELISA); assay type: cell-based; conditions: 75 μM ketoprofen, 6-8 J/cm^2 UVA, 24 hours after irradiation
Experimental: After adding a mixed solution of 75 μM ketoprofen and different concentrations of propyl gallate to a culturing medium (EpiLife™ Serum Free Medium E0151) (Cascade Biologics, Inc.) containing HPV16 immobilized human adult keratinocytes (KERTr) KUK001 (ATCC Co., Rockville, Md.), the mixture was incubated for 2 hours at […] in 5% carbon dioxide/95% air, and then irradiated with 6-8 J/cm^2 UVA. When 24 hours had passed after UVA irradiation, the IL-1α concentration of the culture supernatant was evaluated with an ELISA kit (R&D Systems, Inc.). As a control, there was used the above-mentioned culturing medium to which a solution of 75 μM ketoprofen alone was added, which was incubated for 2 hours at 37° C. in 5% carbon dioxide/95% air, and which was not irradiated with UVA.
An experiment was conducted in the same manner as Example 6 using di-tert-butylhydroxytoluene (BHT) instead of propyl gallate.

## COc1ccc(O)cc1C(C)(C)C [BHA, 2-tert-butyl-4-oxyanisole]
[1]; 0.5% BHA with 2% ketoprofen in ethanol
  Auricular edema inhibition (%): 24%

## CCCCCCCCC(=O)NCc1ccc(O)c(OC)c1 [nonylic vanillylamide]
[2]
  synergistic effect on the phototoxicity-reducing action: No such synergistic effect is observed

## Cc1cc(C(C)(C)C)c(O)c(C(C)(C)C)c1 [BHT, 2,6-di-tert-butyl-p-cresol]
[3]; BHT 0.125 μg/mL, propyl gallate 0
  hemolysis inhibition at 0.125 µg/mL: -3.7%
[3]; BHT 0.25 μg/mL, propyl gallate 0
  hemolysis inhibition at 0.25 µg/mL: 9.6%
[3]; BHT 0.5 μg/mL, propyl gallate 0
  hemolysis inhibition at 0.5 µg/mL: 49.6%
[3]; BHT 1 μg/mL, propyl gallate 0
  hemolysis inhibition at 1 µg/mL: 88.9%
[1]; 1.0% BHT with 2% ketoprofen in ethanol
  Auricular edema inhibition (%): 16%
[4]
  IL-1α production (IL-1α concentration in the culture supernatant): IL-1α production is inhibited

## Cc1ccc(C(C)C)c(O)c1 [Thymol, 6-isopropyl-m-cresol]
[3]; thymol 0.5 μg/mL, propyl gallate 0
  hemolysis inhibition at 0.5 µg/mL: 10.8%
[3]; thymol 1 μg/mL, propyl gallate 0
  hemolysis inhibition at 1 µg/mL: 41.1%
[3]; thymol 2 μg/mL, propyl gallate 0
  hemolysis inhibition at 2 µg/mL: 70.7%

## CCCOC(=O)c1cc(O)c(O)c(O)c1 [Propyl gallate, propyl gallate]
[3]; Table 1: propyl gallate 0.5 μg/mL, BHA 0
  hemolysis inhibition at 0.5 µg/mL: 25.5%
[3]; Table 1: propyl gallate 1 μg/mL, BHA 0
  hemolysis inhibition at 1 µg/mL: 66%
[3]; Table 1: propyl gallate 2 μg/mL, BHA 0
  hemolysis inhibition at 2 µg/mL: 88.9%
[3]; Table 2: propyl gallate 0.5 μg/mL, BHT 0
  hemolysis inhibition at 0.5 µg/mL: 3.6%
[3]; Table 2: propyl gallate 1 μg/mL, BHT 0
  hemolysis inhibition at 1 µg/mL: 45.4%
[3]; Table 2: propyl gallate 2 μg/mL, BHT 0
  hemolysis inhibition at 2 µg/mL: 91.2%
[3]; Table 3: propyl gallate 0.5 μg/mL, thymol 0
  hemolysis inhibition at 0.5 µg/mL: 2.1%
[3]; Table 3: propyl gallate 1 μg/mL, thymol 0
  hemolysis inhibition at 1 µg/mL: 63.8%
[3]; Table 3: propyl gallate 2 μg/mL, thymol 0
  hemolysis inhibition at 2 µg/mL: 88%
[1]; Table 4: 0.2% PG with 2% ketoprofen in ethanol
  Auricular edema inhibition (%): 21%
[1]; Table 5: 0.2% PG with 2% ketoprofen in ethanol
  Auricular edema inhibition (%): 19%
[4]
  IL-1α production (IL-1α concentration in the culture supernatant): IL-1α production is inhibited

— patent US20060188557A1, “Prepartaion for external percutaneous administration containing non-steroidal anti-inflammatory drug and interleukin-1 alpha production inhibitor” (Hisamitsu Pharmaceutical Co., Inc., priority 2003, published 2006)
